Source: article PMC6207684, “Structural reorganization of SHP2 by oncogenic mutations and implications for oncoprotein resistance to allosteric inhibition” (Nature Communications, 2018)
Numbering of substitutions follows the chain as printed. Where a SMILES comes first, the peptide text is derived from it. [ ]: non-standard residue; d: D form. pY = N[C@@H](Cc1ccc(OP(=O)(O)O)cc1)C(=O)O; PEG8 = NCCOCCOCCOCCOCCOCCOCCOCCOCCC(=O)O

What was measured:
Test in all cases: SHP2 phosphatase activity upon p-IRS-1 peptide stimulation (DiFMUP)
Format in all cases: biochemical
Details in all cases: 200 μM DiFMUP, read-out: pIRS-1 AC50
[1] = biological target: T1, SHP2^G60V (Homo sapiens, UniProt Q06124, G60V)
T1 construct: made in house
T1 sequence (Q06124 1-593 G60V): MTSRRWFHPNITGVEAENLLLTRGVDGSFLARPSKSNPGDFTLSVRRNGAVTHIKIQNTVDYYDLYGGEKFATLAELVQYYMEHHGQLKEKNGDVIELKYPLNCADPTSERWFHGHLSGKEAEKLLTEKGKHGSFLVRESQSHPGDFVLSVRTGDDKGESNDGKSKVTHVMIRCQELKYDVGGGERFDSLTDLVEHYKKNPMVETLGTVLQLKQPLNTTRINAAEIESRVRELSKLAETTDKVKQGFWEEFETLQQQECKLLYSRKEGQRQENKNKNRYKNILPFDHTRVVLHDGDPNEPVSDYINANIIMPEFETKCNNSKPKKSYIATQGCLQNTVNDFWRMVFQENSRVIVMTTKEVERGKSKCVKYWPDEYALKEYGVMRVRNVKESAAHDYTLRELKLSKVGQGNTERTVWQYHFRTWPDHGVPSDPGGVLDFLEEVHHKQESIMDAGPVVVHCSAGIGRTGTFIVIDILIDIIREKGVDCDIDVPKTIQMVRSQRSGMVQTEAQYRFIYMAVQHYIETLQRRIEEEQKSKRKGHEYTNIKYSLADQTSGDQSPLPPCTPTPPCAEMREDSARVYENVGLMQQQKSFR
Protocol: (§1) Wild-type and mutant SHP2 proteins were diluted to 0.1 nM and treated with either varying concentrations of diphosphorylated IRS-1 peptide (pY1172-Peg-PY1222, SLNY(p)IDLDLVK-dPEG8-LSTY(p)ASINFQK), or for maximal activation, 10 μM pY1172-Peg-PY1222. Phosphatase activity was measured through the dephosphorylation DiFMUP (200 μM, ex. 385, em. 450 nm) on a Spectramax M5 plate reader and converted to product (DiFMU)/time by preparing a standard curve of DiFMU/DiFMUP. Velocity data were fit to the following three-parameter dose–response curve (Eq. (2)) to extrapolate EC50 values:2 V=Basal+Max-Basal∕1+10^LogEC50-S Where V represents enzyme velocity, Basal is basal response, Max is maximal response, [S] is substrate concentration, and EC50 is the substrate concentration that yields response half way between basal and maximal.

[2] = biological target: T2, SHP2^D61V (Homo sapiens, UniProt Q06124, D61V)
T2 construct: made in house
T2 sequence (Q06124 1-593 D61V): T1 sequence (Q06124 1-593 G60V) with V60G, D61V
Protocol: as §1

[3] = biological target: T3, SHP2^WT (Homo sapiens, UniProt Q06124)
T3 construct: made in house
T3 sequence (Q06124 1-593): T1 sequence (Q06124 1-593 G60V) with V60G
Protocol: as §1

[4] = biological target: T4, SHP2^F285S (Homo sapiens, UniProt Q06124, F285S)
T4 construct: made in house
T4 sequence (Q06124 1-593 F285S): T1 sequence (Q06124 1-593 G60V) with V60G, F285S
Protocol: as §1

[5] = biological target: T5, SHP2^S502P (Homo sapiens, UniProt Q06124, S502P)
T5 construct: made in house
T5 sequence (Q06124 1-593 S502P): T1 sequence (Q06124 1-593 G60V) with V60G, S502P
Protocol: as §1

CC[C@H](C)[C@H](NC(=O)[C@H](CO)NC(=O)[C@H](C)NC(=O)[C@H](Cc1ccc(OP(=O)(O)O)cc1)NC(=O)[C@@H](NC(=O)[C@H](CO)NC(=O)[C@H](CC(C)C)NC(=O)CCOCCOCCOCCOCCOCCOCCOCCOCCNC(=O)[C@H](CCCCN)NC(=O)[C@@H](NC(=O)[C@H](CC(C)C)NC(=O)[C@H](CC(=O)O)NC(=O)[C@H](CC(C)C)NC(=O)[C@H](CC(=O)O)NC(=O)[C@@H](NC(=O)[C@H](Cc1ccc(OP(=O)(O)O)cc1)NC(=O)[C@H](CC(N)=O)NC(=O)[C@H](CC(C)C)NC(=O)[C@@H](N)CO)[C@@H](C)CC)C(C)C)[C@@H](C)O)C(=O)N[C@@H](CC(N)=O)C(=O)N[C@@H](Cc1ccccc1)C(=O)N[C@@H](CCC(N)=O)C(=O)N[C@@H](CCCCN)C(=O)O [pIRS-1, SLNY(p)IDLDLVK-dPEG8-LSTY(p)ASINFQK] (H-SLN[pY]IDLDLVK[PEG8]LST[pY]ASINFQK-OH)
AC50 [1]: 9 ± 2 nM
AC50 [2]: 4 ± 1 nM
AC50 [3]: 247 ± 18 nM
AC50 [4]: 18 ± 2 nM
AC50 [5]: 5 ± 2 nM
